Entries after “also recorded” stand apart in the source; their conditions may differ. Where two headings read alike, the source gives them in different places.
Legend:
HepG2 cells = test: Cellular dose response assay, HepG2; type: cell-based, human
Text: (§1) HT-1080 (human [Homo sapiens] […] fibrosarcoma), A-673 (human [Homo sapiens] […] Ewing's sarcoma), and SK-HEP-1 (human [Homo sapiens] […] hepatic adenocarcinoma), cells were obtained from ATCC. Huh7 (human [Homo sapiens] […] hepatocellular carcinoma), HLF (human [Homo sapiens] […] hepatocellular carcinoma), HepG2 (human [Homo sapiens] […] hepatocellular carcinoma), cells were obtained from the Cancer Cell Bank at Columbia University Irving Medical Center. HT-1080, A-673, Huh-7, and HLF cells were grown in Dulbecco's Modified Eagle Medium (DMEM) supplemented with 10% heat inactivated fetal bovine serum (HI-FBS), 1% non-essential amino acids, and 1% penicillin streptomycin. HepG2 and SK-HEP-1 cells were grown in Eagle's Minimum Essential Medium (EMEM) supplemented with 10% HI-FBS, and 1% penicillin-streptomycin. All cells were cultured at 37° C. and 5% CO2.
(§2) HT-1080, HepG2, Huh7, HLF, and SK-HEP-1 cells were seeded into opaque white 384-well plates at 1500 cells per well then incubated at 37° C. with 5% CO2 overnight. The next day, compounds of interest were dissolved in DMSO and 12-point 2-fold dilution series were prepared with and without Fer-1. Cells were treated in triplicate (final DMSO concentration of 0.4% in all wells, including DMSO-only control wells) and incubated for a further 48 hours at 37° C. and 5% CO2. Cell viability was evaluated using CellTiter-Glo (Promega G7573) and luminescence was recorded on a Victor 5 plate reader. Data were analyzed in GraphPad Prism 9 and error bars represent standard deviation values for three technical replicates in a representative experiment.

GPX4 = molecular target: T1, GPX4 (Homo sapiens, UniProt P36969); test: GPX4 activity assay in cell lysates (NADPH-coupled); type: biochemical; set-up: endogenous in cells; host or cells: A-673 cell lysate; settings: for GPX4% inhibition at 2.5 μM: 4th generation
T1 sequence (P36969 1-170 isoform P36969-2): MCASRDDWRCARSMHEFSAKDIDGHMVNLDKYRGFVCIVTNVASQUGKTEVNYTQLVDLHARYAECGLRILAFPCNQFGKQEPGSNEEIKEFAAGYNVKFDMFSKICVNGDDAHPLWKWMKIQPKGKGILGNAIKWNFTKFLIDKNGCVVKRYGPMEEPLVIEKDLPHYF
Summary of the method: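 Native GPX4 in lysates of A-673 cells grown with 20 nM sodium selenite; lysate preincubated with compound 45 min at 37 °C in pH 8.0 buffer with 3 mM GSH, 0.5 mM NADPH and glutathione reductase. Reaction started with phosphatidylcholine hydroperoxide; NADPH consumption followed at 340 nm over 25 min; triplicates.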

HT-1080 cells = test: Cellular dose response assay, HT-1080 with and without Fer-1; type: cell-based, human; settings: for ferroptosis induction / potency in HT-1080 cells, result in words: RSL3 as control; for Selectivity: ferroptosis selectivity, IC50 with Fer-1 / IC50
Summary of the method: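 1500 cells/well, o/n; 12-pt 2-fold dilns, ±Fer-1 (HT-1080), 0.4% DMSO, n=3 technical; 48 h, 37 °C/5% CO2; CellTiter-Glo lum. Huh7, HLF, HT-1080 grown in DMEM/10% HI-FBS; SK-HEP-1 in EMEM/10% HI-FBS.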

SK-HEP-1 cells = test: Cellular dose response assay, SK-HEP-1; type: cell-based, human; settings: Table 7
Text: as §1, §2

Huh7 cells = test: Cellular dose response assay, Huh7; type: cell-based, human; settings: Table 7
Text: as §1, §2

HLF cells = test: Cellular dose response assay, HLF; type: cell-based, human; settings: Table 7
Text: as §1, §2

[1] = compounds alone, read-out: IC50 (uM) SKHEP1^a
[2] = with fer-1, read-out: IC50 (uM) SKHEP1^b
[3] = compounds alone, Table 7, read-out: IC50 (uM) HEPG2^a
[4] = with fer-1, Table 7, read-out: IC50 (uM) HEPG2^b
[5] = 200 μM, generation 1, mean ± s.d., n = 3
[6] = compounds alone, read-out: IC50 (uM) Huh7^a
[7] = with fer-1, read-out: IC50 (uM) Huh7^b
[8] = compounds alone, Table 7, read-out: IC50 (uM) HT1080^a
[9] = with fer-1, Table 7, read-out: IC50 (uM) HT1080^b
[10] = compounds alone, read-out: IC50 (uM) HLF^a
[11] = with fer-1, read-out: IC50 (uM) HLF^b
[12] = with Fer-1, Table 10, read-out: IC50 (μM) HT1080 + Fer-1
[13] = without Fer-1, Table 10, read-out: IC50 (μM) HT1080
[14] = read-out: IC50 against HT1080 cell lines

## O=C(Nc1c[nH]c2ccccc12)n1ccnc1 [QW-065]
HepG2 cells; compounds alone, read-out: IC50 (μM) HEPG2^a
  IC50: > 400 µM
HepG2 cells; compounds and fer-1 1.0 μM, read-out: IC50 (μM) HEPG2^b
  IC50: > 400 µM
GPX4; 200 μM, mean ± s.d., n = 3
  GPX4% inhibition at 200 (μM): 32.4 ± 2.4%
HT-1080 cells; compounds alone, read-out: IC50 (μM) HT1080^a
  IC50: > 400 µM
HT-1080 cells; compounds and fer-1 1.0 μM, read-out: IC50 (μM) HT1080^b
  IC50: > 400 µM

## COc1ccc2cc(C(=O)NCC(C)(C)COC(=O)CBr)[nH]c2c1 [QW-303]
SK-HEP-1 cells; [1]
  IC50: 5.1 µM
SK-HEP-1 cells; [2]
  IC50: 17.1 µM
HepG2 cells; [3]
  IC50: 4.7 µM
HepG2 cells; [4]
  IC50: 12.7 µM
GPX4; [5]
  GPX4% inhibition at 200 (μM): 88.7 ± 2.3%
Huh7 cells; [6]
  IC50: 6.3 µM
Huh7 cells; [7]
  IC50: 16.8 µM
HT-1080 cells; [8]
  IC50: 4 µM
HT-1080 cells; [9]
  IC50: 6.1 µM
HLF cells; [10]
  IC50: 2.5 µM
HLF cells; [11]
  IC50: 5.7 µM

## O=C(CBr)OCCCNC(=O)c1cc2cc(Cl)ccc2[nH]1 [QW-305]
SK-HEP-1 cells; [1]
  IC50: 2.3 µM
SK-HEP-1 cells; [2]
  IC50: 10.9 µM
HepG2 cells; [3]
  IC50: 1.9 µM
HepG2 cells; [4]
  IC50: 7.2 µM
GPX4; [5]
  GPX4% inhibition at 200 (μM): 88.6 ± 3.1%
Huh7 cells; [6]
  IC50: 3.8 µM
Huh7 cells; [7]
  IC50: 26.1 µM
HT-1080 cells; [8]
  IC50: 1.9 µM
HT-1080 cells; [9]
  IC50: 5 µM
HLF cells; [10]
  IC50: 0.7 µM
HLF cells; [11]
  IC50: 4.3 µM

## CC(C)(COC(=O)CCl)NC(=O)c1[nH]c2ccccc2c1Br [QW-348]
SK-HEP-1 cells; [1]
  IC50: 3.9 µM
SK-HEP-1 cells; [2]
  IC50: 32.7 µM
HepG2 cells; [3]
  IC50: 7.5 µM
HepG2 cells; [4]
  IC50: 27.3 µM
GPX4; [5]
  GPX4% inhibition at 200 (μM): 99.6 ± 3.2%
Huh7 cells; [6]
  IC50: 4.5 µM
Huh7 cells; [7]
  IC50: 32.4 µM
HT-1080 cells; [8]
  IC50: 8.5 µM
HT-1080 cells; [9]
  IC50: 26 µM
HLF cells; [10]
  IC50: 4.1 µM
HLF cells; [11]
  IC50: 27.8 µM

## Cn1nc(C(=O)NC(C)(C)COC(=O)CCl)c2cc(Br)ccc21 [QW-356]
SK-HEP-1 cells; [1]
  IC50: 0.8 µM
SK-HEP-1 cells; [2]
  IC50: 81 µM
HepG2 cells; [3]
  IC50: 6.7 µM
HepG2 cells; [4]
  IC50: 73.5 µM
GPX4
  GPX4 inhibitory activity, result in words: significant improvement on GPX4 inhibition over QW-314 and RSL3
GPX4; 200 μM
  GPX4 inhibition: complete inhibition
GPX4; 200 μM, generation 2
  GPX4% inhibition at 200 (μM): 105.7 ± 2.5%
Huh7 cells; [6]
  IC50: 2.5 µM
Huh7 cells; [7]
  IC50: 112 µM
HT-1080 cells; [8]
  IC50: 3.1 µM
HT-1080 cells; [9]
  IC50: 58.3 µM
HLF cells; [10]
  IC50: 1.1 µM
HLF cells; [11]
  IC50: 60.9 µM

## CC(C)(COC(=O)CCl)NC(=O)c1nn(Cc2ccc(Cl)cc2)c2cc(-c3ccc(N4CCOCC4)c(Cl)c3)ccc12 [QW-824]
GPX4
  GPX4 inhibitory activity, result in words: greater GPX4 inhibitory activity than QW-446
  GPX4% inhibition at 2.5 μM: 90.5 ± 7.4%
HT-1080 cells
  ferroptosis induction / potency in HT-1080 cells, result in words: good potency in cell and selectivity to GPX4; also recorded: outstanding cytotoxicity with sub-molar scale
  Selectivity: >220
HT-1080 cells; [12]
  IC50: > 40 µM
HT-1080 cells; [13]
  IC50: 0.18 µM

## C=CC(=O)OCC(C)(C)NC(=O)c1nn(Cc2ccc(Cl)cc2)c2cc(-c3ccc(OC)c(Cl)c3)ccc12 [QW-831]
GPX4
  GPX4% inhibition at 2.5 μM: 32.6 ± 61.0%
HT-1080 cells
  Selectivity: 1.1
HT-1080 cells; [12]
  IC50: 13 µM
HT-1080 cells; [13]
  IC50: 12 µM

## COc1ccc(-c2ccc3c(C(=O)NC(C)(C)COC(=O)C#C[Si](C)(C)C)nn(Cc4ccc(Cl)cc4)c3c2)cc1Cl [QW-832]
GPX4
  GPX4% inhibition at 2.5 μM: 58.9 ± 9.0%
HT-1080 cells
  Selectivity: 37.4
HT-1080 cells; [12]
  IC50: 63.6 µM
HT-1080 cells; [13]
  IC50: 1.7 µM

## CC(C)Oc1ccc(-c2ccc3c(C(=O)NC(C)(C)COC(=O)CCl)nn(Cc4ccc(Cl)cc4)c3c2)cc1Cl [QW-841]
GPX4
  GPX4% inhibition at 2.5 μM: 91.3 ± 2.0%
HT-1080 cells
  ferroptosis induction / potency in HT-1080 cells, result in words: outstanding cytotoxicity with sub-molar scale
  Selectivity: 38.5
HT-1080 cells; [12]
  IC50: 28.5 µM
HT-1080 cells; [13]
  IC50: 0.74 µM

## CSc1ccc(-c2ccc3c(C(=O)NC(C)(C)COC(=O)CCl)nn(Cc4ccc(Cl)cc4)c3c2)cc1Cl [QW-847]
GPX4
  GPX4% inhibition at 2.5 μM: 88.5 ± 16.1%
HT-1080 cells
  Selectivity: 9.6
HT-1080 cells; [12]
  IC50: 98.4 µM
HT-1080 cells; [13]
  IC50: 10.2 µM

## COc1ccc(-c2ccc3c(C(=O)NC(C)(C)COC(=O)CCl)nn(Cc4cc(Cl)cc(Cl)c4)c3c2)cc1Cl [QW-851]
GPX4
  GPX4 inhibitory activity, result in words: greater GPX4 inhibitory activity than QW-446 at 2.5 μM concentration
  GPX4% inhibition at 2.5 μM: 114.9 ± 23.5%
HT-1080 cells; benzyl vs methyl on the indazole
  fold change in potency in the cell viability assay, QW-851 vs QW-446: 10 fold
HT-1080 cells
  Selectivity: >920
HT-1080 cells; [14]
  IC50: 0.0435 µM
HT-1080 cells; [12]
  IC50: > 40 µM

## COc1ccc(-c2cc(Cl)cc(Cn3nc(C(=O)NC(C)(C)COC(=O)CCl)c4ccc(-c5ccc(OC)c(Cl)c5)cc43)c2)cc1Cl [QW-853]
GPX4
  GPX4% inhibition at 2.5 μM: 45.5 ± 34.3%
HT-1080 cells
  Selectivity: 56.8
HT-1080 cells; [12]
  IC50: 21 µM
HT-1080 cells; [13]
  IC50: 0.37 µM

## CC(C)Oc1ccc(-c2ccc3c(C(=O)NC(C)(C)COC(=O)CCl)nn(Cc4cc(Cl)cc(Cl)c4)c3c2)cc1Cl [QW-857]
GPX4
  GPX4 inhibitory activity, result in words: greater GPX4 inhibitory activity than QW-446 at 2.5 μM concentration
  GPX4% inhibition at 2.5 μM: 66.7 ± 26.2%
HT-1080 cells
  Selectivity: >790
HT-1080 cells; [14]
  IC50: 0.0506 µM
HT-1080 cells; [12]
  IC50: > 40 µM

## COc1ccc(-c2ccc3c(C(=O)NC(C)(C)COC(=O)CCl)nn(Cc4ccc(C(F)(F)F)cc4)c3c2)cc1Cl [QW-873]
GPX4
  GPX4% inhibition at 2.5 μM: 45.6 ± 39.7%
HT-1080 cells
  Selectivity: 3.4
HT-1080 cells; [12]
  IC50: 26.8 µM
HT-1080 cells; [13]
  IC50: 8 µM

## CC(C)(COC(=O)CCl)NC(=O)c1nn(Cc2ccc(C(F)(F)F)cc2)c2cc(-c3ccc(N4CCOCC4)c(Cl)c3)ccc12 [QW-874]
GPX4
  GPX4% inhibition at 2.5 μM: 57.5 ± 24.5%
HT-1080 cells
  Selectivity: 1.7
HT-1080 cells; [12]
  IC50: 49 µM
HT-1080 cells; [13]
  IC50: 28.3 µM

## CC(C)(COC(=O)CCl)NC(=O)c1nn(Cc2ccc(-c3ccc(N4CCOCC4)c(Cl)c3)cc2)c2cc(-c3ccc(N4CCOCC4)c(Cl)c3)ccc12 [QW-883]
GPX4
  GPX4% inhibition at 2.5 μM: 41.1 ± 40.9%
HT-1080 cells
  Selectivity: 371.4
HT-1080 cells; [12]
  IC50: 20.8 µM
HT-1080 cells; without Fer-1, Table 10, read-out: IC50 HT1080
  IC50: 0.0564 µM

## COc1ccc(-c2cc(Cl)cc(Cn3nc(C(=O)NC(C)(C)C(C)(C)OC(=O)CCl)c4ccc(-c5ccc(OC)c(Cl)c5)cc43)c2)cc1Cl [QW-888]
GPX4
  GPX4% inhibition at 2.5 μM: 78.7 ± 5.0%
HT-1080 cells
  Selectivity: 2.0
HT-1080 cells; [12]
  IC50: 49.6 µM
HT-1080 cells; [13]
  IC50: 24.5 µM

From patent US20250248979A1, “NOVEL GPX4 INHIBITORS AND USES THEREOF” (THE TRUSTEES OF COLUMBIA UNIVERSITY IN THE CITY OF NEW YORK, priority 2022, published 2025)
